Test results published in patent US6603025B1, “Method of production of benzofuranone oximes” (Bayer Aktiengesellschaft, priority 1999, dated 2003).

Tests used:
log P = assay type: physicochemical
[1] = stated in text after the preparation example
[2] = Table 1, benzofuranyl alkanoates prepared analogously to Example 3
[3] = table of benzofuranone oximes prepared analogously to Example 2

| logP (log P; [2]) | melting point | logP (log P; [3]) | SMILES | further results |
| --- | --- | --- | --- | --- |
| 2.65 | – | – | COc1ccc2c(OC(C)=O)coc2c1 [Example 8] | – |
| – | 150 °C (dec.) | 2.38 | O/N=C1\COc2cc(C(F)(F)F)ccc21 [Example 11] | – |
| – | – | 1.79 | Cc1ccc2c(c1)OC/C2=N\O [Example 12] | – |
| – | – | 1.52 | COc1ccc2c(c1)OC/C2=N\O [Example 13] | – |

More lines, now with the values behind:

| SMILES | logP (log P; [2]) | melting point | logP (log P; [3]) | further results |
| --- | --- | --- | --- | --- |
| CO/N=C1\COc2ccccc21 [Example 1, O-methyl benzofuran oxime] | – | – | – | logP (log P; [1]): 2.38 |
| O/N=C1\COc2ccccc21 [Example 2] | – | – | – | logP (log P; [1]): 1.44 |
| CC(=O)Oc1coc2cc(C(F)(F)F)ccc12 [Example 6] | 3.38 | 27 °C | – | – |
| CC(=O)Oc1coc2cc(C)ccc12 [Example 7] | 3.09 | 32 to 36 °C | – | – |
